Experimental findings from patent publication US8664217B2, “Benzodiazepine compound and pharmaceutical composition” (Otsuka Pharmaceutical Co., Ltd., priority 2008, dated 2014) are described below.

Structures can show the parent of a compound that is named as a salt.

This test concerns the target T1, human Kv1.5 channels (Homo sapiens, UniProt P22460).
T1 construct: Full-length human Kv1.5 cDNA was cloned from a human heart cDNA library; expressed in transfected cells; host or cells: CHO-K1
The test can be described thus: Measurement of human Kv1.5 channel current by whole-cell patch clamp method (human Kv1.5-expressing CHO-K1 cell line). It is filed as cell-based. Particulars: human Kv1.5-expressing CHO-K1 cells, step end current at +40 mV, test compound 0.1, 1, 10 μM. How it is done: Pharmacological Test 1 (1) Production of Human Kv1.5-Expressing CHO-K1 Cell Lines
CHO-K1 cell lines stably expressing human Kv1.5 channels were prepared in the following manner.
Full-length human Kv1.5 cDNA was cloned from a human heart cDNA library (produced by Stratagene). The obtained human Kv1.5 sequence corresponds to the sequence described in FASEB J. 5, 331-337 (1991).
The obtained human Kv1.5 cDNA was inserted into a plasmid encoding a CMV promoter and a G418 resistance marker to produce a Kv1.5 expression vector. The human Kv1.5 expression vector was transfected into CHO-K1 cells by the lipofectamine method. After culturing the cells in an F-12 medium (produced by Invitrogen Corp.) containing 10% FBS (produced by Invitrogen Corp.) for 3 or 4 days, the medium was replaced with a FBS-containing F-12 medium that included 1,000 μg/ml of G418 (produced by Invitrogen Corp.), and single colonies were isolated. The amount of Kv1.5 channel expression in the single colonies was quantified at the mRNA level by RT-PCR and then quantified at the protein level by western blotting. Finally, the expressed current was analyzed by patch clamp method. Cell lines expressing a current of 200 pA or more per cell were selected as channel-expressing cell lines for activity measurement by patch clamp method.
(3) Measurement of Ion Channel Current by Patch Clamp Method (Human Kv1.5-Expressing CHO-K1 Cell Line)
An experiment was carried out using a patch clamp setup at room temperature (20 to 26° C.). A perfusion chamber having a diameter of 20 mm (flow rate: about 5 ml/min) was mounted on the stage of a phase-contrast inverted microscope (produced by Nikon Corporation) placed on a vibration isolated table. A poly-L-lysine (produced by Sigma)-coated coverslip (diameter: 15 mm, produced by Matsunami Glass Ind., Ltd.) on which human Kv1.5-expressing cells were cultured was placed in the perfusion chamber.
Depolarizing stimulation pulses were applied and ionic current was recorded by using a patch clamp amplifier (EPC-7 or EPC-7 PLUS, produced by HEKA) and a personal computer (manufactured by IBM Corp.) in which software for data acquisition and analysis of ion channel current (PULSE 8.77, produced by HEKA) was installed. The current was measured in the whole-cell configuration of the patch-clamp technique. The tip (resistance: 2 to 4 MΩ) of a borosilicate glass pipette (produced by Sutter Instrument Co.) was gently placed on the cell membrane by using a three-dimensional mechanical micromanipulator (produced by Shoshin EM Corporation). […] Subsequently, stronger suction was applied to break the cell membrane. The capacitative current derived from the cell membrane was corrected using a patch clamp amplifier. Subsequently, the series resistance (Rs) between the pipette and the interior of the cell was measured and corrected.
The composition of the extracellular solution used is shown below. Unless otherwise specified, these components were obtained from Wako Pure Chemical Industries, Ltd.
Each test compound was prepared as a 1000-fold concentrated stock solution that was dissolved in DMSO and then diluted in the extracellular solution.
The composition of the electrode internal solution used is shown below. Unless otherwise specified, these components were obtained from Wako Pure Chemical Industries, Ltd.
(5) Measurement of Human Kv1.5 Current
While the membrane potential was bolded at −80 mV, depolarizing pulses (−80 mV for 0.05 seconds→+40 mV for 0.2 seconds →−40 mV for 0.2 seconds→−80 mV for 0.05 seconds) were applied at a stimulation frequency of 1 Hz to measure Kv1.5 channel current. More specifically, first, while perfusing an extracellular solution containing 0.1% DMSO and holding the membrane potential at −80 mV, depolarizing pulses were applied. The current obtained during the pulse application was recorded as a current in the absence of the test compounds. […]
A general note: Patch clamp records ionic current or voltage across a cell membrane.

T1 sequence (P22460 whole entry): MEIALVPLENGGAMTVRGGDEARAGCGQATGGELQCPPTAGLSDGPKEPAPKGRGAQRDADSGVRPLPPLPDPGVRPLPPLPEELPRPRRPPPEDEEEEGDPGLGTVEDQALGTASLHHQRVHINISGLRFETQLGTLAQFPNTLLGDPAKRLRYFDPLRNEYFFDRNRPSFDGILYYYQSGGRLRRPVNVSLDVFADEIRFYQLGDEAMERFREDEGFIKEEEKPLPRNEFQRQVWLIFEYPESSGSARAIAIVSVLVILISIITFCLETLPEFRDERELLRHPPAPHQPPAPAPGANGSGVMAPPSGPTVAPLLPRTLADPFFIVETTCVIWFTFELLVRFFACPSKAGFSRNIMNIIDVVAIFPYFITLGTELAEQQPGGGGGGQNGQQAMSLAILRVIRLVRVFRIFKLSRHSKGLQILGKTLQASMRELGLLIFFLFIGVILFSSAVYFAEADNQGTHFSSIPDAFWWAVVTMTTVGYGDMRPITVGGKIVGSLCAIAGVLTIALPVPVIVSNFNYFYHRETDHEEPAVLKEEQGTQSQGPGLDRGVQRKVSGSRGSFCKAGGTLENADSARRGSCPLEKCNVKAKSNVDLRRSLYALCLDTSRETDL

As for `CCN1C(=O)C(C)(C)C(=O)N(C)c2cc(OCCCN(CCc3cccnc3)S(=O)(=O)c3ccccc3)ccc21` [Example 628, N-[3-(1-ethyl-3,3,5-trimethyl-2,4-dioxo-2,3,4,5-tetrahydro-1H-benzo[b][1,4]diazepin-7-yloxy)propyl]-N-(2-pyridin-3-ylethyl)benzenesulfonamide hydrochloride], the midpoint of inhibition, the IC50, lay at 980 nM. On to `CCN1C(=O)C(C)(C)C(=O)N(C)c2cc(OCCCN(CCn3ccc4occc4c3=O)Cc3cccnc3)ccc21` [Example 551, 1-ethyl-3,3,5-trimethyl-7-(3-{[2-(4-oxo-4H-furo[3,2-c]pyridin-5-yl)ethyl]pyridin-3-ylmethylamino}-propoxy)-1,5-dihydrobenzo[b][1,4]diazepine-2,4-dione], for which the IC50 (commonly the concentration that gives 50% inhibition) was found to be 390 nM.

`CCN1C(=O)C(C)(C)C(=O)N(C)c2cc(OCCCN(CCn3ccc4sccc4c3=O)Cc3cccnc3)ccc21` [Example 568, 1-ethyl-3,3,5-trimethyl-7-(3-{[2-(4-oxo-4H-thieno[3,2-c]pyridin-5-yl)ethyl]pyridin-3-ylmethylamino}-propoxy)-1,5-dihydrobenzo[b][1,4]diazepine-2,4-dione]: half-maximal inhibition (IC50) was put at 420 nM. With `CCN1C(=O)C(C)(C)C(=O)N(C)c2cc(OCCCN(CCc3cccnc3)C(=O)c3ccccc3)ccc21` [Example 633, N-[3-(1-ethyl-3,3,5-trimethyl-2,4-dioxo-2,3,4,5-tetrahydro-1H-benzo[b][1,4]diazepin-7-yloxy)propyl]-N-(2-pyridin-3-ylethyl)benzamide hydrochloride], the IC50 came out at 1100 nM. The molecule `CCN1C(=O)C(C)(C)C(=O)N(C)c2cc(OCCCN(CCn3ccc4ccsc4c3=O)Cc3ccncc3)ccc21` [Example 68, 1-ethyl-3,3,5-trimethyl-7-(3-{[2-(7-oxo-7H-thieno[2,3-c]pyridin-6-yl)ethyl]pyridin-4-ylmethylamino}propoxy)-1,5-dihydrobenzo[b][1,4]diazepine-2,4-dione] yielded an IC50 of 380 nM. As to `CCN1C(=O)C(C)(C)C(=O)N(C)c2cc(OCCCN(CCn3ccc4ccccc4c3=O)Cc3ccco3)ccc21` [Example 132], the half-inhibitory concentration (IC50) came out at 270 nM. Molecule `CCN1C(=O)C(C)(C)C(=O)N(C)c2cc(OCCCN(CCn3ccc4ccoc4c3=O)Cc3ccccc3C)ccc21` [Example 398] returned an IC50 of 220 nM. Regarding `CCN1C(=O)C(C)(C)C(=O)N(C)c2cc(OCCCN(CCn3ccc4ccoc4c3=O)Cc3cccs3)ccc21` [Example 417], inhibition was half-maximal at 180 nM (IC50). `CCN1C(=O)C(C)(C)C(=O)N(C)c2cc(OCCCN(CCn3ccc4ccoc4c3=O)Cc3ccncc3)ccc21` [Example 31, 1-ethyl-3,3,5-trimethyl-7-(3-{[2-(7-oxo-7H-furo[2,3-c]pyridin-6-yl)ethyl]pyridin-4-ylmethylamino}propoxy)-1,5-dihydrobenzo[b][1,4]diazepine-2,4-dione dihydrochloride]: the IC50 is 1300 nM. As to `CCN1C(=O)C(C)(C)C(=O)N(C)c2cc(OCCCN(CCn3ccc4oc(C)cc4c3=O)Cc3ccncc3)ccc21` [Example 464, 1-ethyl-3,3,5-trimethyl-7-(3-{[2-(2-methyl-4-oxo-4H-furo[3,2-c]pyridin-5-yl)ethyl]pyridin-4-ylmethylamino}propoxy)-1,5-dihydrobenzo[b][1,4]diazepine-2,4-dione dihydrochloride], the midpoint of inhibition, the IC50, lay at 440 nM. For `CCCc1ncccc1CN(CCCOc1ccc2c(c1)N(C)C(=O)C(C)(C)C(=O)N2CC)CCn1ccc2oc(C)cc2c1=O` [Example 611, 1-ethyl-3,3,5-trimethyl-7-{3-[[2-(2-methyl-4-oxo-4H-furo[3,2-c]pyridin-5-yl)ethyl]-(2-propylpyridin-3-ylmethyl)amino]propoxy}-1,5-dihydrobenzo[b][1,4]diazepine-2,4-dione dihydrochloride], 310 nM corresponded to half-maximal inhibition (IC50). With `CCN1C(=O)C(C)(C)C(=O)N(C)c2cc(OCCCN(CCn3ccc4ccccc4c3=O)Cc3ccsc3)ccc21` [Example 125] the figure was 190 nM; with `CCN1C(=O)C(C)(C)C(=O)N(C)c2cc(OCCCN(CCn3ccc4occc4c3=O)Cc3cnccc3C)ccc21` [Example 590, 1-ethyl-3,3,5-trimethyl-7-(3-{(4-methylpyridin-3-ylmethyl)-[2-(4-oxo-4H-furo[3,2-c]pyridin-5-yl)ethyl]-amino}propoxy)-1,5-dihydrobenzo[b][1,4]diazepine-2,4-dione], 460 nM; with `CCCN1C(=O)C(C)(C)C(=O)N(C)c2cc(OCCCN(CCc3cccnc3)Cc3ccncc3)ccc21` [Example 10, 3,3,5-trimethyl-1-propyl-7-{3-[(2-pyridin-3-ylethyl)pyridin-4-ylmethylamino]propoxy}-1,5-dihydrobenzo[b][1,4]diazepine-2,4-dione trihydrochloride], 580 nM. With `CCN1C(=O)C(C)(C)C(=O)N(C)c2cc(OCCCN(CCn3ccc4occc4c3=O)Cc3cccnc3C)ccc21` [Example 575, 1-ethyl-3,3,5-trimethyl-7-(3-{(2-methylpyridin-3-ylmethyl)-[2-(4-oxo-4H-furo[3,2-c]pyridin-5-yl)ethyl]-amino}propoxy)-1,5-dihydrobenzo[b][1,4]diazepine-2,4-dione] the figure was 440 nM. Turning to `CCN1C(=O)C(C)(C)C(=O)N(C)c2cc(OCCCN(CCn3c(=O)ccc4ccccc43)Cc3ccncc3)ccc21` [Example 63, 1-ethyl-3,3,5-trimethyl-7-(3-{[2-(2-oxo-2H-quinolin-1-yl)ethyl]pyridin-4-ylmethylamino}propoxy)-1,5-dihydrobenzo[b][1,4]diazepine-2,4-dione], the IC50 is 240 nM.

Take `CCN1C(=O)C(C)(C)C(=O)N(C)c2cc(OCCCN(CCn3ccc4ccccc4c3=O)Cc3ccncc3)ccc21` [Example 23, 1-ethyl-3,3,5-trimethyl-7-(3-{[2-(1-oxo-1H-isoquinolin-2-yl)ethyl]pyridin-4-ylmethylamino}propoxy)-1,5-dihydrobenzo[b][1,4]diazepine-2,4-dione dihydrochloride]: the IC50 amounted to 180 nM. In turn, `CCN1C(=O)C(C)(C)C(=O)N(C)c2cc(OCCCN(CCc3cccnc3)Cc3ccccc3-c3cccnc3)ccc21` [Example 242] returned an IC50 of 180 nM. This counts as sub-micromolar. With `CCN1C(=O)C(C)(C)C(=O)N(C)c2cc(OCCCN(CCn3ccc4ccoc4c3=O)Cc3ccc(C(F)(F)F)cc3)ccc21` [Example 395] the figure was 190 nM; with `CN1C(=O)C(C)(C)C(=O)N(C)c2cc(OCCCN(CCc3cccnc3)Cc3ccnc4ccccc34)ccc21` [Example 51, 1,3,3,5-tetramethyl-7-{3-[(2-pyridin-3-ylethyl)-(quinolin-4-ylmethyl)amino]propoxy}-1,5-dihydrobenzo[b][1,4]diazepine-2,4-dione trihydrochloride], 210 nM; with `CCN1C(=O)C(C)(C)C(=O)N(C)c2cc(OCCCN(CCn3ccc4ccoc4c3=O)Cc3ccc(C#N)cc3)ccc21` [Example 380], 160 nM. Turning to `CCN1C(=O)C(C)(C)C(=O)N(CC)c2cc(OCCCN(CCc3cccnc3)Cc3ccncc3)ccc21` [Example 14, 1,5-diethyl-3,3-dimethyl-7-{3-[(2-pyridin-3-ylethyl)pyridin-4-ylmethylamino]propoxy}-1,5-dihydrobenzo[b][1,4]diazepine-2,4-dione trihydrochloride], the midpoint of inhibition, the IC50, lay at 580 nM.
